# Test results from article PMC10377643, “Exploration of Bis-Cinnamido-Polyamines as Intrinsic Antimicrobial Agents and Antibiotic Enhancers” (Biomolecules, 2023).
# How the values were obtained:
# [1] = system: S. aureus ATCC 25923; assay: Antimicrobial MIC, S. aureus; format: cell-based; conditions: Staphylococcus aureus, ATCC25923, mean (n = 3)
# Procedure, shortened: (§1)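 Broth susceptibility MICs against the listed ATCC strains. S. aureus and P. aeruginosa tested per a previously reported protocol; MRSA and C. albicans tested under CO-ADD (University of Queensland) standard protocols.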
# [2] = system: MRSA ATCC 43300; assay: Antimicrobial MIC, MRSA (CO-ADD); format: cell-based, methicillin-resistant S. aureus; conditions: Staphylococcus aureus; MRSA ATCC 43300; mean (n = 2); read-out: MIC MRSA
# Procedure, shortened: as §1
# [3] = system: P. aeruginosa ATCC 27853; assay: Antimicrobial MIC, P. aeruginosa; format: cell-based; conditions: Pseudomonas aeruginosa, ATCC27853, mean (n = 3)
# Procedure, shortened: as §1
# [4] = system: E. coli ATCC 25922; assay: Antimicrobial MIC, E. coli; format: cell-based, Escherichia coli; conditions: Escherichia coli, ATCC25922, E. coli ATCC 25922; mean (n = 3)
# Procedure, shortened: as §1
# [5] = system: C. albicans ATCC 90028; assay: Antifungal MIC, C. albicans (CO-ADD); format: cell-based; conditions: Candida albicans, ATCC90028, mean (n = 2)
# Procedure, shortened: as §1
# [6] = system: C. neoformans ATCC 208821; assay: Antifungal MIC, C. neoformans (CO-ADD); format: cell-based; conditions: Cryptococcus neoformans, ATCC208821, mean (n = 2)
# [7] = Cytotoxicity assay; format: cell-based, human; conditions: human, HEK293 human embryonic kidney cells, mean (n = 2), read-out: Cytotoxicity (IC50), concentration of compound at 50% cytotoxicity
# Experimental: Cytotoxicity assays were conducted using the protocols previously reported.
# [8] = system: human red blood cells; assay: Hemolytic assay; format: cell-based; conditions: mean (n = 2)
# Experimental: Hemolysis assays were conducted using the protocols previously reported.
# [9] = system: P. aeruginosa ATCC 27853; assay: Doxycycline enhancement against P. aeruginosa; format: cell-based, Pseudomonas aeruginosa; conditions: doxycycline fixed at 4.5 µM
# Procedure, shortened: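 A fixed doxycycline level of 4.5 μM was combined with test compounds over 3.125 to 50–100 μM against P. aeruginosa ATCC 27853. The top concentration was set by each compound's own MIC, and enhancer concentrations followed a previously reported protocol.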
# [10] = system: E. coli ATCC 25922; assay: Erythromycin enhancement against E. coli; format: cell-based, Escherichia coli; conditions: erythromycin fixed at 10.9 µM (8 µg/mL)
# Experimental: Antibiotic enhancer concentrations were determined using previously reported protocols.
# [11] = system: S. aureus; set-up: method as in PMID 22515429; conditions: natural product; cited from earlier work
# [12] = system: Pseudomonas aeruginosa; set-up: method as in PMID 22515429; conditions: natural product; cited from earlier work
smiles,measurement,setting,value
"COc1c(Br)cc(/C=C/C(=O)NCCCNCCCCNCCCNC(=O)/C=C/c2cc(Br)c(OC)c(Br)c2)cc1Br.O=C(O)C(F)(F)F.O=C(O)C(F)(F)F [Compound 16a, N^1,N^4-Bis(3-((E)-3-(3,5-dibromo-4-methoxyphenyl)acrylamido)propyl)butane-1,4-diaminium 2,2,2-trifluoroacetate]",MIC,[1],5.86 µM
same,MIC,[2],≤ 0.23 µM
same,MIC,[3],188 µM
same,MIC,[4],11.7 µM
same,MIC,[5],30 µM
same,MIC,[6],≤ 0.23 µM
same,IC50,[7],> 30 µM
same,"Hemolysis (HC10), concentration of compound at 10% hemolytic activity",[8],≤0.23 µM
same,Dox/P. a: concentration required to restore doxycycline activity,[9],5.86 µM
same,Dox/P. a: fold change (intrinsic MIC of test compound / combination MIC),[9],32 fold
same,Eryth/E. c: concentration required to restore erythromycin activity,[10],11.7 µM
same,Eryth/E. c: fold change (intrinsic MIC of test compound / combination MIC),[10],1 fold
same,"MIC, growth inhibition towards S. aureus",[11],17.5 µM
same,MIC towards Pseudomonas aeruginosa,[12],8.75 µM
